The source of these data is patent US10745383B2, “1,3,5-triazine derivative and method of using same” (CHIA TAI TIANQING PHARMACEUTICAL GROUP CO., LTD., priority 2015, dated 2020).

Series [1] deals with IDH2 (R172K, 40-end) (Homo sapiens (Human), UniProt P48735, R172K). As to the kind of experiment: IDH2 inhibitory activity determined by decrease of NADPH (diaphorase/resazurin fluorescence). The class given is biochemical. Particulars: 120 min pre-incubation with enzyme and NADPH, 120 min reaction with α-KG. Here is the method:
The inhibitory activity of the compounds of the present application against IDH2 (R172K, 40-end) was determined by using the following method, which was expressed as IC50 values, i.e., the concentrations of the compounds required to achieve 50% inhibition of IDH2 activity.
The inhibitory activity of a compound against IDH2 (R172K, 40-end) was determined by the decrease of a helper factor NADPH. The test compound was pre-incubated with an enzyme and NADPH, and then a reaction was initiated by the addition of α-KG, and performed for 120 minutes under a linear condition. Then, the reaction was terminated by the addition of diaphorase (lipoamide dehydrogenase) and the corresponding substrate resazurin. Diaphorase terminated the IDH2m reaction by decreasing the available helper factor NADPH, which oxidized NADPH to NADP, and reduced resazurin to highly fluorescent resorufin. The amount of remaining helper factor NADPH after a specific reaction time was quantified via an easily detectable fluorophore.
Specifically, 2.5 μl of a 3-fold gradient diluted test compound was added to a 384-well plate, and then 5 μl of a reaction buffer (20 mM Tris-HCl, PH7.5; 150 mM NaCl; 10 mM MgCl2; 10 mM MnCl2; 0.4 mg/ml BSA and 2 mM DTT) containing 80 nM IDH2 (R172K, 40-end) and 40 μM NADPH was added. Then, the resulting test mixture was incubated for 120 minutes at a temperature of 23° C., and then 2.5 μl of the reaction buffer containing 4 mM α-KG was added to initiate the reaction. After incubating for 120 minutes at room temperature, 5 μl of a termination mixture (0.4 U/ml diaphorase and 40 μM resazurin) prepared with the reaction buffer was added to convert resazurin to resorufin to determine the remaining NADPH. After incubating for 10 minutes at a temperature of 23° C., a fluorescence value was determined through Flexstation 3 at Ex535/Em595.

Series [2] is described as follows: Pharmacokinetic parameters in rats after a single intragastric dose. Format: in vivo. Conditions: for AUC(0-inf) / Cmax / Tmax / half-life: rat, po, male rats, intragastric, single dose 5 mg/kg, plasma. On the procedure:
Healthy male adult rats (7-9 weeks old) were used in this study. Each group of animals (3 male rats) was intragastrically administered once at a single dose of 5 mg/kg. The animals in the intragastric administration group were fasted overnight before this study. The fasting time period was from 10 hours before administration to 4 hours after administration.
Blood samples were taken at 0.25, 0.5, 1, 2, 4, 6, 8 and 24 h after administration. The animals were anesthetized with isoflurane using an animal anesthesia machine, and then 0.3 mL whole blood samples were taken from the fundus venous plexus. The blood samples were placed in heparin anticoagulant tubes, and centrifuged for 5 min at 4° C. and 4000 rpm. The resulting plasmas were transferred to centrifuge tubes, and stored at −80° C. until analysis.
Verified LC-MS/MS method was used to analyze the plasma samples. Plasma concentration-time data of animals were analyzed using WinNonlin (Professional Edition, version 6.3; Pharsight Company) software. The non-compartmental model was introduced for concentration analysis. The pharmacokinetic parameters of the compounds were calculated.

[3] abbreviates: rats, same dose (5 mg/kg intragastric).

Chain of IDH2 (R172K, 40-end) (P48735 40-452 R172K): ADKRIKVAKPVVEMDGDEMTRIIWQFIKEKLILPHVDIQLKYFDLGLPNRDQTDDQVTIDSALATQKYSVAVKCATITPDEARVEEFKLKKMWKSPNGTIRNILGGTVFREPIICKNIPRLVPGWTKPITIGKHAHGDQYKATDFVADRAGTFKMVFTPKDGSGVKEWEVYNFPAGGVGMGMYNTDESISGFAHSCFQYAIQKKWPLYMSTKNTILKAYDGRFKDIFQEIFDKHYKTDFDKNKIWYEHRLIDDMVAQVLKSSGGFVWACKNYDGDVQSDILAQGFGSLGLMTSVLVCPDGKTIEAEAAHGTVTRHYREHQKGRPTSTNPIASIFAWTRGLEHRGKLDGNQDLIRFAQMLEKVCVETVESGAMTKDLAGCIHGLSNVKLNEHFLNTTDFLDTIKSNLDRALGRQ

Molecule `CC(C)(CO)ONc1nc(Nc2ccnc(C(F)(F)F)c2)nc(-c2cccc(C(F)(F)F)n2)n1` [Example 7, 2-methyl-2-(((4-(6-(trifluoromethyl)pyridin-2-yl)-6-((2-(trifluoromethyl)pyridin-4-yl)amino)-1,3,5-triazin-2-yl)amino)oxy)propan-1-ol] gave an IC50 in series [1] of 154 nM.

Molecule `CCONc1nc(Nc2ccnc(C(F)(F)F)c2)nc(-c2cccc(C(F)(F)F)n2)n1` [Example 1, 4-(ethoxyamino)-6-(6-(trifluoromethyl)pyridin-2-yl)-N-(2-(trifluoromethyl)pyridin-4-yl)-1,3,5-triazin-2-amine] registered an IC50 in series [1] of 22.4 nM.

`CC(C)(C)ONc1nc(Nc2ccnc(C(F)(F)F)c2)nc(-c2ccccc2)n1` [Example 10, 4-(tert-butoxyamino)-6-phenyl-N-(2-(trifluoromethyl)pyridin-4-yl)-1,3,5-triazin-2-amine] showed an IC50 in series [1] of 51.4 nM. Compared with the last molecule, the IC50 is about 2.3-fold higher.

Turning to `CC(C)(C)ONc1nc(Nc2ccnc(C(F)(F)F)c2)nc(-c2cccc(C(F)(F)F)n2)n1` [Example 3, 4-(tert-butoxyamino)-6-(6-(trifluoromethyl)pyridin-2-yl)-N-(2-(trifluoromethyl)pyridin-4-yl)-1,3,5-triazin-2-amine], the IC50 in series [1] came out at 31.7 nM. Further, in series [2], the AUC(0-inf) was found to be 10800 ng·h/mL, the Cmax was 589 ng/mL, the Tmax turned out to be 5 h and the half-life was 12 h. For the same molecule, in series [2] (setting [3]), the “half-life compared with AG-221” value is reported as “longer half-life”, the “metabolism in vivo compared with AG-221” value is on record as “better metabolism in vivo” and the “plasma concentration compared with AG-221” value is “higher plasma concentration”.

As to `FC(F)(F)c1cc(Nc2nc(NOCC3CC3)nc(-c3cccc(C(F)(F)F)n3)n2)ccn1` [Example 4, 4-((cyclopropylmethoxy)amino)-6-(6-(trifluoromethyl)pyridin-2-yl)-N-(2-(trifluoromethyl)pyridin-4-yl)-1,3,5-triazin-2-amine], half-maximal inhibition in series [1] (IC50) required 38.2 nM.

For the molecule `CC(C)(O)CNc1nc(Nc2ccnc(C(F)(F)F)c2)nc(-c2cccc(C(F)(F)F)n2)n1` [AG-221, reference compound], in series [2], the AUC(0-inf) was 5380 ng·h/mL, the Cmax amounted to 479 ng/mL, the Tmax turned out to be 4 h and the half-life was 3.73 h.

`FC(F)(F)c1cc(Nc2nc(NOCc3ccccc3)nc(-c3cccc(C(F)(F)F)n3)n2)ccn1` [Example 8, 4-((benzyloxy)amino)-6-(6-(trifluoromethyl)pyridin-2-yl)-N-(2-(trifluoromethyl)pyridin-4-yl)-1,3,5-triazin-2-amine]: half-maximal inhibition in series [1] (IC50) was put at 239 nM.

Consider `CC(C)(O)CONc1nc(Nc2ccnc(C(F)(F)F)c2)nc(-c2cccc(C(F)(F)F)n2)n1` [Example 6, 2-methyl-1-(((4-(6-(trifluoromethyl)pyridin-2-yl)-6-((2-(trifluoromethyl)pyridin-4-yl)amino)-1,3,5-triazin-2-yl)amino)oxy)propan-2-ol], for which the midpoint of inhibition in series [1], the IC50, lay at 46.9 nM.

Broadly, the IC50 is the midpoint of a concentration-inhibition curve. Read a high IC50 as weaker potency in that assay. Usually AUC(0-inf) stands for total exposure, with the tail of the curve extrapolated. A lower AUC(0-inf) goes with less exposure. A word on the Cmax: it is the maximum level reached in the sampled fluid or tissue. A word on the Tmax: it is the time from dosing to the highest level. What is called half-life is the time needed for the level to fall by half in the phase considered.
